What was measured:
[1] = Thermodynamic stability of the solid state forms; assay type: physicochemical; conditions: at least in the relevant temperature range below 600 / below 60° C.
[2] = tested on: DU-145 Human Prostate Carcinoma; experiment: DU-145 human prostate carcinoma model in nude mice; assay type: in vivo; conditions: orally 10, 20 or 30 mg/kg in 30% HPβCD, tumor growth determined 27 to 56 days after tumor transplantation, versus vehicle control
Procedure: The active compound was applied in 30% HPβCD. As control, a vehicle of DMSO/ethanol 1.1 in 0.085% Myrj/NaCl/30% HPβCD was used. The tumor growth was determined after 27 to 56 days after tumor transplantation.

Structure (SMILES)	thermodynamic stability of the polymorph [1]	tumor growth [2]
Nc1ccccc1NC(=O)c1ccc(CNC(=O)OCc2cccnc2)cc1 [polymorph A, N-(2-aminophenyl)-4-[N-(pyridine-3-yl)methoxycarbonylamino-methyl]benzamide, reference compound]	not the thermodynamically stable polymorph	
Nc1ccccc1NC(=O)c1ccc(CNC(=O)OCc2cccnc2)cc1 [polymorph B, N-(2-aminophenyl)-4-[N-(pyridine-3-yl)methoxy-carbonylamino-methyl]benzamide]	thermodynamically stable polymorph	clear inhibition

From patent US7973166B2, “N-(2-aminophenyl)-4-[N-(pyridine-3-yl)-methoxycarbonyl-aminomethyl]-benzamide (MS-275) polymorph B” (Bayer Schering Pharma AG, priority 2008, dated 2011)
